US20230203021A1, “GLP-1 RECEPTOR AGONIST, PHARMACEUTICAL COMPOSITION COMPRISING SAME, AND METHOD FOR PREPARING SAME” (LG CHEM, LTD., priority 2020, published 2023)

The compounds below were run against T1, hGLP-1R (Homo sapiens, UniProt P43220) (assay: Measurement of activity of GLP-1R agonist (cell-based luciferase assay), CHO-K1/hGLP-1R/CRE-luciferase cell line). Conditions: GLP-1R activity; CHO-K1/hGLP-1R/CRE-luciferase cells, 9 concentrations, four hours of incubation, Bright-Glo luminescence.
T1 construct: expressed in transfected cells; host or cells: CHO-K1
T1 sequence (P43220 24-463): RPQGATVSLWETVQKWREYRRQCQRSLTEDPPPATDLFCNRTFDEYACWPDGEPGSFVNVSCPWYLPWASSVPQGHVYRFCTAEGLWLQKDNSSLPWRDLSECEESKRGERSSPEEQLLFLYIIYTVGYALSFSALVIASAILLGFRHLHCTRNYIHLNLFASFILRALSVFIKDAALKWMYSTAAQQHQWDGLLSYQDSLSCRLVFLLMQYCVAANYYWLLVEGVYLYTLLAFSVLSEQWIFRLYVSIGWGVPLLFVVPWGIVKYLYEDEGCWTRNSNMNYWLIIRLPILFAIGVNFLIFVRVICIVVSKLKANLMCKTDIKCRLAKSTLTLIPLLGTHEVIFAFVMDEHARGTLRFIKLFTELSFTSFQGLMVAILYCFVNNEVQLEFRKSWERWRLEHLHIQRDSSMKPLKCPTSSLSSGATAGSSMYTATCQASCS
Experimental: 15,000 cells of a CHO-K1/hGLP-1R/CRE-luciferase cell line were seeded in a 96-well plate. A medium used herein was Ham’s F-12 Nutrient medium. The cells were incubated for 18 hours in a 5% CO2 incubator which was maintained at 37° C., and then treated with drugs. Each drug dispensed at 9 different concentrations was dissolved in a DMEM/F-12 + 1% FBS medium, and the cell line was treated with each of 100 µl thereof. After four hours of incubation, a Bright-Glo® luciferase assay system kit was used to add 30 µl of an assay reagent per well. A plate was stored at room temperature for 15 minutes, and then luminescence was measured using a SpectraMax M5 reader.

Row | Structure (SMILES) | EC50 [nM]
1 | O=C(O)c1ccc2nc(Oc3ccc(-c4cccc(OCc5ccc(Cl)cc5F)n4)cc3F)n(C[C@@H]3CCCO3)c2c1 [Example 31, (S)-2-(4-(6-((4-chloro-2-fluorobenzyl)oxy)pyridin-2-yl)-2-fluorophenoxy)-1-((tetrahydrofuran-2-yl)methyl)-1H-benzo[d]imidazole-6-carboxylic acid] | > 80
2 | O=C(O)c1ccc2nc(Oc3ccc(-c4cccc(OCc5ccc(Cl)cc5F)n4)cc3Cl)n(C[C@@H]3CCCO3)c2c1 [Example 32, (S)-2-(2-chloro-4-(6-((4-chloro-2-fluorobenzyl)oxy)pyridin-2-yl)phenoxy)-1-((tetrahydrofuran-2-yl)methyl)-1H-benzo[d]imidazole-6-carboxylic acid] | 3.43
3 | O=C(O)c1ccc2nc(Cc3ccc(-c4cccc(OCc5ccc(Cl)cc5F)n4)cc3)n(C[C@H]3CCOC3)c2c1 [Example 33, (R)-2-(4-(6-((4-chloro-2-fluorobenzyl)oxy)pyridin-2-yl)benzyl)-1-((tetrahydrofuran-3-yl)methyl)-1H-benzo[d]imidazole-6-carboxylic acid] | 0.365

Continued, values first:

Row | EC50 [nM] | Structure (SMILES)
4 | 0.087 | O=C(O)c1ccc2nc(Cc3ccc(-c4cccc(OCc5ccc(Cl)cc5F)n4)c(Cl)c3)n(C[C@@H]3CCCO3)c2c1 [Example 34, (S)-2-(3-chloro-4-(6-((4-chloro-2-fluorobenzyl)oxy)pyridin-2-yl)benzyl)-1-((tetrahydrofuran-2-yl)methyl)-1H-benzo[d]imidazole-6-carboxylic acid]
5 | 0.784 | O=C(O)c1ccc2nc(Cc3ccc(-c4cccc(OCc5ccc(Cl)cc5F)n4)cc3)n(C[C@@H]3CCOC3)c2c1 [Example 35, (S)-2-(4-(6-((4-chloro-2-fluorobenzyl)oxy)pyridin-2-yl)benzyl)-1-((tetrahydrofuran-3-yl)methyl)-1H-benzo[d]imidazole-6-carboxylic acid]
6 | 2.09 | O=C(O)c1ccc2nc(Cc3ccc(-c4cccc(OCc5ccc(C(F)(F)F)cc5F)n4)cc3)n(C[C@@H]3CCOC3)c2c1 [Example 36, (S)-2-(4-(6-((2-fluoro-4-(trifluoromethyl)benzyl)oxy)pyridin-2-yl)benzyl)-1-((tetrahydrofuran-3-yl)methyl)-1H-benzo[d]imidazole-6-carboxylic acid]
7 | 1.34 | O=C(O)c1ccc2nc(Cc3ccc(-c4cccc(OCc5ccc(Cl)cc5F)n4)c(Cl)c3)n(C[C@@H]3CCOC3)c2c1 [Example 37, (S)-2-(3-chloro-4-(6-((4-chloro-2-fluorobenzyl)oxy)pyridin-2-yl)benzyl)-1-((tetrahydrofuran-3-yl)methyl)-1H-benzo[d]imidazole-6-carboxylic acid]
